Laboratory results taken from the NIST ThermoML archive (doi:10.1021/acs.jced.8b00132).
Several values for one entry are separate records, joined by “and”; a condition that tells them apart may be missing. Equal entries are not always repeated.

O=C(C(F)(F)C(F)(F)F)C(F)(C(F)(F)F)C(F)(F)F [dodecafluoro-2-methylpentan-3-one]
Conditions | thermal conductivity
389.64 K, 670 kPa, Liquid, transient hot wire | 0.04285 W/m/K
389.64 K, 9501 kPa, Liquid, transient hot wire | 0.04974 W/m/K
389.64 K, 9504 kPa, Liquid, transient hot wire | 0.04979 W/m/K
389.65 K, 670 kPa, Liquid, transient hot wire | 0.04282 W/m/K
389.65 K, 53766 kPa, Liquid, transient hot wire | 0.06802 W/m/K
389.66 K, 53751 kPa, Liquid, transient hot wire | 0.06802 W/m/K
389.7 K, 21438 kPa, Liquid, transient hot wire | 0.05608 W/m/K
389.7 K, 21439 kPa, Liquid, transient hot wire | 0.05607 W/m/K
389.72 K, 40368 kPa, Liquid, transient hot wire | 0.0636 W/m/K
389.72 K, 67805 kPa, Liquid, transient hot wire | 0.07218 W/m/K
389.72 K, 67826 kPa, Liquid, transient hot wire | 0.07217 W/m/K
389.73 K, 40356 kPa, Liquid, transient hot wire | 0.06359 W/m/K
389.74 K, 5608 kPa, Liquid, transient hot wire | 0.04712 W/m/K
389.75 K, 14721 kPa, Liquid, transient hot wire | 0.0528 W/m/K
389.76 K, 2811 kPa, Liquid, transient hot wire | 0.04489 W/m/K
389.76 K, 14719 kPa, Liquid, transient hot wire | 0.05276 W/m/K
389.77 K, 2810 kPa, Liquid, transient hot wire | 0.04491 W/m/K
389.79 K, 29871 kPa, Liquid, transient hot wire | 0.0597 W/m/K
389.8 K, 29864 kPa, Liquid, transient hot wire | 0.05959 W/m/K
389.8 K, 53730 kPa, Liquid, transient hot wire | 0.06799 W/m/K
389.81 K, 53715 kPa, Liquid, transient hot wire | 0.06798 W/m/K
389.83 K, 9502 kPa, Liquid, transient hot wire | 0.0497 W/m/K
389.83 K, 9503 kPa, Liquid, transient hot wire | 0.04976 W/m/K
389.84 K, 669 kPa, Liquid, transient hot wire | 0.04282 W/m/K and 0.04287 W/m/K
389.85 K, 670 kPa, Liquid, transient hot wire | 0.0428 W/m/K and 0.04285 W/m/K
389.87 K, 21435 kPa, Liquid, transient hot wire | 0.05603 W/m/K
389.87 K, 67783 kPa, Liquid, transient hot wire | 0.07218 W/m/K
389.88 K, 40337 kPa, Liquid, transient hot wire | 0.06356 W/m/K
389.88 K, 40347 kPa, Liquid, transient hot wire | 0.06347 W/m/K
389.88 K, 67759 kPa, Liquid, transient hot wire | 0.07209 W/m/K
389.94 K, 5610 kPa, Liquid, transient hot wire | 0.04715 W/m/K
389.95 K, 5610 kPa, Liquid, transient hot wire | 0.04716 W/m/K
389.95 K, 14717 kPa, Liquid, transient hot wire | 0.05274 W/m/K
389.96 K, 2811 kPa, Liquid, transient hot wire | 0.04493 W/m/K
389.96 K, 14717 kPa, Liquid, transient hot wire | 0.05275 W/m/K
389.97 K, 2812 kPa, Liquid, transient hot wire | 0.04492 W/m/K
389.97 K, 29861 kPa, Liquid, transient hot wire | 0.05954 W/m/K
389.97 K, 29862 kPa, Liquid, transient hot wire | 0.05955 W/m/K
389.97 K, 53688 kPa, Liquid, transient hot wire | 0.06792 W/m/K
389.97 K, 53707 kPa, Liquid, transient hot wire | 0.06846 W/m/K
390.03 K, 9500 kPa, Liquid, transient hot wire | 0.04976 W/m/K
390.03 K, 9503 kPa, Liquid, transient hot wire | 0.04976 W/m/K
390.06 K, 669 kPa, Liquid, transient hot wire | 0.0428 W/m/K
390.06 K, 670 kPa, Liquid, transient hot wire | 0.04284 W/m/K and 0.04279 W/m/K
390.06 K, 21434 kPa, Liquid, transient hot wire | 0.05598 W/m/K
390.06 K, 21436 kPa, Liquid, transient hot wire | 0.056 W/m/K
390.06 K, 40331 kPa, Liquid, transient hot wire | 0.0635 W/m/K
390.06 K, 40336 kPa, Liquid, transient hot wire | 0.06349 W/m/K
390.15 K, 5609 kPa, Liquid, transient hot wire | 0.04709 W/m/K and 0.04706 W/m/K
390.15 K, 14714 kPa, Liquid, transient hot wire | 0.05264 W/m/K
390.15 K, 29850 kPa, Liquid, transient hot wire | 0.0595 W/m/K
390.16 K, 14712 kPa, Liquid, transient hot wire | 0.05268 W/m/K
390.16 K, 29857 kPa, Liquid, transient hot wire | 0.0595 W/m/K
390.18 K, 2812 kPa, Liquid, transient hot wire | 0.04486 W/m/K
390.19 K, 2812 kPa, Liquid, transient hot wire | 0.04487 W/m/K
390.24 K, 9499 kPa, Liquid, transient hot wire | 0.04963 W/m/K
390.25 K, 9501 kPa, Liquid, transient hot wire | 0.04969 W/m/K
390.25 K, 21437 kPa, Liquid, transient hot wire | 0.05589 W/m/K
390.26 K, 21435 kPa, Liquid, transient hot wire | 0.05593 W/m/K
390.28 K, 669 kPa, Liquid, transient hot wire | 0.04276 W/m/K and 0.04278 W/m/K
390.29 K, 670 kPa, Liquid, transient hot wire | 0.04279 W/m/K and 0.04277 W/m/K
390.36 K, 14712 kPa, Liquid, transient hot wire | 0.05264 W/m/K
390.36 K, 14714 kPa, Liquid, transient hot wire | 0.05262 W/m/K
390.37 K, 5610 kPa, Liquid, transient hot wire | 0.04711 W/m/K
390.37 K, 5611 kPa, Liquid, transient hot wire | 0.04706 W/m/K
390.42 K, 2814 kPa, Liquid, transient hot wire | 0.04483 W/m/K
390.42 K, 2815 kPa, Liquid, transient hot wire | 0.04488 W/m/K
390.46 K, 9497 kPa, Liquid, transient hot wire | 0.04961 W/m/K
390.46 K, 9500 kPa, Liquid, transient hot wire | 0.04968 W/m/K
390.52 K, 669 kPa, Liquid, transient hot wire | 0.04282 W/m/K and 0.04283 W/m/K
390.53 K, 670 kPa, Liquid, transient hot wire | 0.04282 W/m/K and 0.04286 W/m/K
390.57 K, 5608 kPa, Liquid, transient hot wire | 0.04706 W/m/K
390.6 K, 5609 kPa, Liquid, transient hot wire | 0.04709 W/m/K
390.66 K, 2816 kPa, Liquid, transient hot wire | 0.04487 W/m/K
390.66 K, 2817 kPa, Liquid, transient hot wire | 0.04488 W/m/K
390.76 K, 669 kPa, Liquid, transient hot wire | 0.04287 W/m/K
390.78 K, 669 kPa, Liquid, transient hot wire | 0.04304 W/m/K
402.21 K, 448 kPa, Gas, hot wire | 0.02088 W/m/K
402.23 K, 447 kPa, Gas, hot wire | 0.02061 W/m/K
402.27 K, 307 kPa, Gas, hot wire | 0.02002 W/m/K and 0.01983 W/m/K
402.31 K, 156 kPa, Gas, hot wire | 0.01939 W/m/K
402.31 K, 157 kPa, Gas, hot wire | 0.01939 W/m/K
402.33 K, 446 kPa, Gas, hot wire | 0.02071 W/m/K
402.34 K, 445 kPa, Gas, hot wire | 0.02068 W/m/K
